Test results as given in US20130109636A1, “TRI-AMINO RELEASING FULVATE” (priority 2011, published 2013).

Key:
Format in all cases: in vivo
[1] = anti-inflammatory; conditions: in all forms
[2] = vasodilatation / acceleration of microcirculation
Description: (§1) This acceleration of microcirculation has many positive benefits.

[3] = prostate; conditions: swollen prostate
[4] = hypertension; conditions: encapsulated
[5] = pain relief; conditions: wounds such as burns and skin lesions
[6] = wound healing
Description: as §1

With “lithio-arginino-glycino-parabenzene-fulvate [Li-TAFA]” the “reduction of inflammation and of resulting discomfort” value [1] was “shown the ability to reduce inflammation and control the discomfort resulting from inflammation”, the “vasodilatation qualities / acceleration of microcirculation” value ([2]; used topically or internally) was “exhibited vasodilatation qualities” and the toxic side effects ([2]; used topically or internally to accelerate microcirculation) was “without toxic side effects”. For the same substance, the prostate size [3] was “demonstrated the ability to shrink a swollen prostate to normal size”, the reduction of hypertension [4] was “demonstrated the ability to reduce hypertension” and the toxic side effects [4] was “without toxic side effects”. For the same substance, the pain relief [5] was “demonstrated substantial pain relief, without diminishing topical sensation”, the “healing of wounds, burns and chronic lesions” value ([6]; lesions healed: 3rd degree radiation burns, squamous and basal cell carcinoma, psoriasis, venous stasis ulcers, decubitus ulcers, deep surgical wounding, herpes) was “exhibited the ability to aid and accelerate the healing of wounds, burns (of all degrees) and several types of chronic lesions” and the scar formation ([6]; radiation burns of the 3rd degree) was “complete suppression of scar formation”.
